From BindingDB's records for doi:10.1016/j.bmc.2004.10.008 (Mitsubishi Pharma, 2005)

Legend:
Test in all cases: [32P] S1P Binding Assay
Settings in all cases: pH 7.5; 4 °C
[1] = biological target: T1, Sphingosine 1-phosphate receptor 4 (Homo sapiens, UniProt O95977)
T1 sequence (O95977 whole entry): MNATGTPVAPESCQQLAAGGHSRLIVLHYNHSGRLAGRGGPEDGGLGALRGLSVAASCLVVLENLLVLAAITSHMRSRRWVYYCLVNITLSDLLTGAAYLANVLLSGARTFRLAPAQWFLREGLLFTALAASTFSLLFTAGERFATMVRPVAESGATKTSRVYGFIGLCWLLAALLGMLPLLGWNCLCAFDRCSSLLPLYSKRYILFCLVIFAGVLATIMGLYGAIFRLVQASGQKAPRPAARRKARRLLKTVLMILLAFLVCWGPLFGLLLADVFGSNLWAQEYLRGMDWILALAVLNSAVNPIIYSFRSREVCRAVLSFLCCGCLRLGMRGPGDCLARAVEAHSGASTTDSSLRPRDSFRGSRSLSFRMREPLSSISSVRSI

[2] = biological target: Sphingosine 1-phosphate receptor 1 (Homo sapiens, UniProt P21453)
[3] = biological target: Sphingosine 1-phosphate receptor 3 (Homo sapiens, UniProt Q99500)
Chain of Sphingosine 1-phosphate receptor 3 (Q99500 whole entry): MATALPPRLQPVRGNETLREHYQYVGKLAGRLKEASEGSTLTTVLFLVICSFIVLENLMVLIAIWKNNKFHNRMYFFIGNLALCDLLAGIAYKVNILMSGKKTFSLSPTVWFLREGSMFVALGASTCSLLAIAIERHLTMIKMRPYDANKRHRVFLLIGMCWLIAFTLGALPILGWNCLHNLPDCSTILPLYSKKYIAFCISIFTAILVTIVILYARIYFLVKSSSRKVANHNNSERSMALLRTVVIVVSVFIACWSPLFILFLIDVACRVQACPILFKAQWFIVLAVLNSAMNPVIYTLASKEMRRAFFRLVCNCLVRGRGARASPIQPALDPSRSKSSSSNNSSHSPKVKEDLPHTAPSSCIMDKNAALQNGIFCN

Chain of Sphingosine 1-phosphate receptor 1 (P21453 whole entry): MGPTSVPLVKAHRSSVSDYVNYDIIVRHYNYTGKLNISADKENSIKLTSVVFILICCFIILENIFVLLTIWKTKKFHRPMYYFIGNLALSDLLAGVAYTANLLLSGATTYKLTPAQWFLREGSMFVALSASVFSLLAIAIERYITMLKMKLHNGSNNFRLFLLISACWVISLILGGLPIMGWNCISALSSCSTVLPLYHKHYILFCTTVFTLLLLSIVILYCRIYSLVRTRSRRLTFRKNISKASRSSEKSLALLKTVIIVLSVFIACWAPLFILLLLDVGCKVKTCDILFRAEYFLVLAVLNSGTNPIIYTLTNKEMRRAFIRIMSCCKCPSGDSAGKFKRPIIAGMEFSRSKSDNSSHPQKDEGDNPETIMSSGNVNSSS

Row | SMILES | Ki [1] | Ki [2] | Ki [3]
1 | CCCCCCCCc1ccc(CCC(N)(CO)COP(=O)(O)O)cc1 (stereo unspecified) [{2-amino-3-hydroxy-2-[2-(4-octylphenyl)ethyl]propoxy}phosphonic acid] | 0.037 µM | – | –
2 | CCCCCCCCc1ccc(CC[C@@](N)(CO)COP(=O)(O)O)cc1 | 0.105 µM | – | –
3 | CCCCCCCCCCCCC/C=C\C(O)C(N)COP(=O)(O)O (stereo unspecified) [{[(4Z)-2-amino-3-hydroxyoctadec-4-en-1-yl]oxy}phosphonic acid] | 0.0027 µM | 0.0012 µM | 0.0054 µM
4 | CCCCCCCCc1ccc(CC[C@](N)(CO)COP(=O)(O)O)cc1 | 0.023 µM | – | –
